test: DPPH radical scavenging activity; assay type: functional

Row | EC50 | Compound
1 | 0.14 mol/mol | Oc1ccc([C@H]2OC[C@H](O)[C@@H]2O)cc1O
2 | 0.23 mol/mol | Cc1cc(C(C)(C)C)c(O)c(C(C)(C)C)c1 [BUTYLATED HYDROXYTOLUENE]
3 | 0.11 mol/mol | O=C(O)/C=C/c1ccc(O)c(O)c1 [CAFFEIC ACID]
4 | 0.14 mol/mol | O=C(O)c1ccc(O)c(O)c1 [PROTOCATECHUIC ACID]

From ChEMBL document CHEMBL1139724, “Synthesis and free radical scavenging activity of a novel metabolite from the fungus Colletotrichum gloeosporioides” (Bioorg Med Chem Lett, 2006)
